For series [1], the target named is cyclophilin A (CypA) (Homo sapiens (Human), UniProt P62937). As to the kind of experiment: Inhibitor binding to cyclophilin proteins by SPR, CypA.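 Also: Single-cycle kinetics on a Biacore T200, compound injected at several concentrations for 1 min each at 50 µL/min, then 10 min dissociation, in HEPES pH 7.4 buffer with 3% DMSO.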 Set-up: unit not given here. To be noted: 1:1 binding model. (In general: SPR reads the build-up and loss of mass on a sensor chip optically.)
The test system of series [2] is genotype 1b subgenomic HCV replicon in Huh7.5 cells. It counts as cell-based, hepatitis C virus. The conditions noted are these: read-out: RPLN-1b IC50. The essentials:
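Replicon inhibition read as renilla luciferase signal versus DMSO controls after 72 h incubation, in Huh7.5 cells harbouring a genotype 1b subgenomic replicon; medium phenol red-free DMEM lacking G418. CC50 determined in parallel via Cell Titer-Glo.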

In series [3] the target is CYP3A4 (Homo sapiens (Human), UniProt P08684). The experiment in a line: Time-dependent inhibition of CYP3A4.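 As to all read-outs here: Two-step in vitro assay, kobs derived from residual CYP3A4 activity versus preincubation time per concentration, then kinact and KI by nonlinear fit of kobs against concentration.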 The conditions noted are these: for NIM TDI kinact/Ki: probe substrate midazolam.
Description: Method 5: Measuring Time-Dependent Inhibition of CYP3A4
The CYP3A4 time dependent inhibition potential of various inhibitors was determined by a two step in vitro assay. […] The inactivation rate constant (kobs) was obtained by plotting the activity remaining over pre-incubation time for each concentration of compound. The maximal inactivation rate (kinact) and the inactivation potency (KI) were calculated by non linear regression analysis of the inactivation rate constant (kobs) versus compound concentrations [I] curve according to the equation kobs=[kinact·[I]]/[KI+[I]]
In series [4] the target is CypF (Homo sapiens (Human), UniProt P30405). As to the kind of experiment: Inhibitor binding to cyclophilin proteins by SPR, CypF. The conditions noted are these: 1:1 binding model. The essentials:
(§1)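 Mono-biotinylated avi-tagged cyclophilins captured on a Biotin CAPture chip. Single-cycle kinetics at 50 μL/min, 1 min contacts, 10 min final dissociation, in 10 mM HEPES pH 7.4, 150 mM NaCl, 0.05% P20, 3% DMSO. kon, koff and KD from a 1:1 binding model.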

The test system of series [5] is peripheral blood mononuclear cells (PBMC). The experiment in a line: Anti-proliferative or immunosuppressive activity, BrdU incorporation in PHA-stimulated PBMC. In kind it is cell-based. The conditions noted are these: PHA 3 μg/ml, 60 hour compound treatment; read-out: EMV PBMC IC50. The essentials:
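BrdU ELISA read-out of DNA synthesis in freshly isolated PBMCs (two donors, 30,000 cells/well, X-VIVO 15). T-cell proliferation triggered with phytohemagglutinin at 3 μg/ml.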

For series [6], the target named is cyclophilin B (CypB) (Homo sapiens (Human), UniProt P23284). The experiment in a line: Inhibitor binding to cyclophilin proteins by SPR, CypB. Set-up: unit not given here. The conditions noted are these: 1:1 binding model. The essentials: as §1
The target in series [7] is organic anion transporting polypeptide 1B1 (OATP1B1) (Homo sapiens (Human), UniProt Q9Y6L6). As to the kind of experiment: OATP assay in CHO-OATP1B1 cells.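 Also: inhibition of probe substrate uptake into the cells, ten minutes exposure, accumulated substrate read by fluorescence once cells were lysed.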
The mark [8] stands for this setting: genotype 1b replicon, 72 h incubation.

The values that follow come from patent publication US9566312B2, “Cyclic peptides and use as medicines” (priority 2012, dated 2017).

Molecules are shown by their SMILES. Read-outs that look alike come from different tables or passages of the source. Starred links: 1 amine or outer side, 2 acyl side, 3 side chain; linkers in the order of their positions; H or OH if unused. Non-standard residues stand in square brackets, D forms with d. Residues, ends and D or L forms follow the SMILES beside them. X10 = C[C@H](CCCOC(=O)NC1CCN(C)CC1)[C@@H](C(=O)[*:2])N(C)[*:1]; X25 = CCN1CCO[C@H](COC[C@@H](C)[C@@H](C(=O)[*:2])N(C)[*:1])C1; X1 = COC[C@@H]1CN(C[C@H](C)[C@@H](C(=O)[*:2])N(C)[*:1])CCO1; X22 = C[C@H](CN1CCN(C2CCC2)CC1)[C@@H](C(=O)[*:2])N(C)[*:1]; NMe(dihydroBmt) = CCCC[C@@H](C)[C@@H](O)[C@H](NC)C(=O)O; X17 = C[C@H](COCC(C)(C)O)[C@@H](C(=O)[*:2])N(C)[*:1]; X9 = C[C@@H](CN1CCOCC1)[C@@H](C(=O)[*:2])N(C)[*:1]; MeBmt = C/C=C/C[C@@H](C)[C@@H](O)[C@H](NC)C(=O)O; NMeL = CN[C@@H](CC(C)C)C(=O)O; NMeV = CN[C@H](C(=O)O)C(C)C; dNMeA = CN[C@H](C)C(=O)O; Abu = CC[C@H](N)C(=O)O

Sequence of organic anion transporting polypeptide 1B1 (OATP1B1) (Q9Y6L6 whole entry): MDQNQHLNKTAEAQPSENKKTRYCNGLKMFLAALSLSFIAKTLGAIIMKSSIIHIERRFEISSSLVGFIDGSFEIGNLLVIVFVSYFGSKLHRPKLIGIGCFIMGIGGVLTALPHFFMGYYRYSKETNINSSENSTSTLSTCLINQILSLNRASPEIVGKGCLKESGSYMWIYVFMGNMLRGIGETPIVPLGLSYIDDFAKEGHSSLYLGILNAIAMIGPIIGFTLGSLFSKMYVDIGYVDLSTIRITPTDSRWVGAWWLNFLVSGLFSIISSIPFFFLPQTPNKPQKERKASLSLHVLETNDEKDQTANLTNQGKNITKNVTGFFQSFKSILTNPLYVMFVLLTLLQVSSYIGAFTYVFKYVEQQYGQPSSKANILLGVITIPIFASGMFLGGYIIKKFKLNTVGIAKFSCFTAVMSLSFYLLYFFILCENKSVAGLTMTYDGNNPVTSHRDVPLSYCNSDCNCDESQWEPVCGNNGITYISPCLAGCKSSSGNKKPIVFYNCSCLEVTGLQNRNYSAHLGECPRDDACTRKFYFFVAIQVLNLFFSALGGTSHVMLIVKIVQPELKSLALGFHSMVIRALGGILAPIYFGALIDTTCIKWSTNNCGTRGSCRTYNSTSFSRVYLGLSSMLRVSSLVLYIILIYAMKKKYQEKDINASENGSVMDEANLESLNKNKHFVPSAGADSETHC
Sequence of CypF (P30405 30-207): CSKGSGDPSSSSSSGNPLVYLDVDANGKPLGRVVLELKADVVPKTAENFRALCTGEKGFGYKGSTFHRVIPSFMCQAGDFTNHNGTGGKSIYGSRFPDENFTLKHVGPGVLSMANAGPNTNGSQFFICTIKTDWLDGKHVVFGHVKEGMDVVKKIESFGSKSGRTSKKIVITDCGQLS
Sequence of CYP3A4 (P08684 whole entry): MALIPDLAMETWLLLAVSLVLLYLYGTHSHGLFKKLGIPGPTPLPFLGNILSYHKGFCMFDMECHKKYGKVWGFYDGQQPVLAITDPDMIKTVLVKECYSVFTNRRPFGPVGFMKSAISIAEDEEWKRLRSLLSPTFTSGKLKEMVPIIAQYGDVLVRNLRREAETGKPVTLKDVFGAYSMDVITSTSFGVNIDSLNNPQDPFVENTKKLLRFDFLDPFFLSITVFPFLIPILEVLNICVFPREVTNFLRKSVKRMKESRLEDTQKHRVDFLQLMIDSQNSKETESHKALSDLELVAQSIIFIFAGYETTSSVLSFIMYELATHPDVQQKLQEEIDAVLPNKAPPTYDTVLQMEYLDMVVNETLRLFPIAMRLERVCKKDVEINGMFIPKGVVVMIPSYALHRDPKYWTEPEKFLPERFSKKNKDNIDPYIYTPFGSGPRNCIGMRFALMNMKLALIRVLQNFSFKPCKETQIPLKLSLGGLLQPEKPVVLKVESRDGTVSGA
Sequence of cyclophilin B (CypB) (P23284 34-216): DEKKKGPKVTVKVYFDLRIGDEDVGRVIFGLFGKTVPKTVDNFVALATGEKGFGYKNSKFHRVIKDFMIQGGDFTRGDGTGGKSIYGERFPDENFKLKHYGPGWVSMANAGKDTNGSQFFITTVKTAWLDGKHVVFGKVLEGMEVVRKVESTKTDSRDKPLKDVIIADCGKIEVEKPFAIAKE
Sequence of cyclophilin A (CypA) (P62937 whole entry): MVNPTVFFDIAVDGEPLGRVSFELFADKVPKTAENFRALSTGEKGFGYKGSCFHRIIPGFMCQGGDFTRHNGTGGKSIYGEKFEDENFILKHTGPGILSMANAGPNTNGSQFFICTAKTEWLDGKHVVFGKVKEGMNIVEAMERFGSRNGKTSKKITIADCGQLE

Broadly, the IC50 is the concentration that gives 50% inhibition. For `C/C=C/C[C@@H](C)[C@@H](O)[C@H]1C(=O)N[C@@H](CC)C(=O)N(C)[C@H](C)C(=O)N(C)[C@@H]([C@@H](C)CN2CCO[C@H](COC)C2)C(=O)N[C@@H](C(C)C)C(=O)N(C)[C@@H](CC(C)C)C(=O)N[C@@H](C)C(=O)N[C@H](C)C(=O)N(C)[C@@H](CC(C)C)C(=O)N(C)[C@@H](CC(C)C)C(=O)N(C)[C@@H](C(C)C)C(=O)N1C` [Compound 2.17.8, 3-[D-Ala]-4[(2S,3S)-2-Amino-4-((S)-2-methoxymethyl-morpholin-4-yl)-3-methyl-butanoyl]-cyclosporin] (cyclo(A[dA][NMeL][NMeL][NMeV][MeBmt][Abu][dNMeA][X1]V[NMeL])), in series [1], the “CypA Kd” value is 1.2. In addition, the IC50 came to 22 nM in series [2] (setting [8]) and 36400 nM in series [5]. Moreover, the Ki in series [3] is more than 50000 nM. Also, the CypF Kd in series [4] turned out to be 0.6 nM. Besides, the “CypB Kd” value in series [6] worked out at 0.7.

For the compound `C/C=C/C[C@@H](C)[C@@H](O)[C@H]1C(=O)N[C@@H](CC)C(=O)N(C)[C@H](C)C(=O)N(C)[C@@H]([C@@H](C)CN2CCOCC2)C(=O)N[C@@H](C(C)C)C(=O)N(C)[C@@H](CC(C)C)C(=O)N[C@@H](C)C(=O)N[C@H](C)C(=O)N(C)[C@@H](CC(C)C)C(=O)N(C)[C@@H](CC(C)C)C(=O)N(C)[C@@H](C(C)C)C(=O)N1C` [Compound 2.17.1, 3-[D-Ala]-4[(2S,3S)-2-Amino-3-methyl-4-morpholin-4-yl-butanoyl]-cyclosporin] (cyclo(A[dA][NMeL][NMeL][NMeV][MeBmt][Abu][dNMeA][X9]V[NMeL])), the “CypA Kd” value in series [1] was 0.6. Besides, the IC50 in series [7] came out at 3600 nM; in series [2] (setting [8]), 29 nM; in series [5], 18000 nM. The compound further showed a Ki in series [3] of more than 50000 nM. This compound registered a CypF Kd in series [4] of 0.3 nM. In addition, the “CypB Kd” value in series [6] is 0.4.

As for `C/C=C/C[C@@H](C)[C@@H](O)[C@H]1C(=O)N[C@@H](CC)C(=O)N(C)[C@H](C)C(=O)N(C)[C@@H]([C@H](C)CCCOC(=O)NC2CCN(C)CC2)C(=O)N[C@@H](C(C)C)C(=O)N(C)[C@@H](CC(C)C)C(=O)N[C@@H](C)C(=O)N[C@H](C)C(=O)N(C)[C@@H](CC(C)C)C(=O)N(C)[C@@H](CC(C)C)C(=O)N(C)[C@@H](C(C)C)C(=O)N1C` [Compound 2.19.8, 3-[D-Ala]-4-[(2S,3R)-3-methyl-2-(methylamino)-6-(((1-methylpiperidin-4-yl)carbamoyl)oxy)hexanoyl]-cyclosporin] (cyclo(A[dA][NMeL][NMeL][NMeV][MeBmt][Abu][dNMeA][X10]V[NMeL])), the “CypA Kd” value in series [1] is 0.8. Further, in series [7], the midpoint of inhibition, the IC50, lay at 7800 nM. In addition, the Ki in series [3] was more than 50000 nM. The CypF Kd in series [4] worked out at 0.4 nM. Besides, the “CypB Kd” value in series [6] was 0.4.

On to `C/C=C/C[C@@H](C)[C@@H](O)[C@H]1C(=O)N[C@@H](CC)C(=O)N(C)[C@H](C)C(=O)N(C)[C@@H]([C@H](C)CCN2CCOCC2)C(=O)N[C@@H](C(C)C)C(=O)N(C)[C@@H](CC(C)C)C(=O)N[C@@H](C)C(=O)N[C@H](C)C(=O)N(C)[C@@H](CC(C)C)C(=O)N(C)[C@@H](CC(C)C)C(=O)N(C)[C@@H](C(C)C)C(=O)N1C` (stereo in doubt) [Compound 2.18.1, 3-[D-Ala]-4-[(2S,3R)-3-methyl-2-(methylamino)-5-morpholinopentanoyl]-cyclosporin], for which the “CypA Kd” value in series [1] was 1.5. In addition, the IC50 came to 22 nM in series [2] (setting [8]) and 16200 nM in series [5]. In series [3], this compound gave a Ki of more than 50000 nM. Further, in series [4], the CypF Kd is 0.9 nM. The “CypB Kd” value in series [6] was 0.8.

For the compound `C/C=C/C[C@@H](C)[C@@H](O)[C@H]1C(=O)N[C@@H](CC)C(=O)N(C)[C@H](CCCN2CCOCC2)C(=O)N(C)[C@@H]([C@H](C)CS(C)(=O)=O)C(=O)N[C@@H](C(C)C)C(=O)N(C)[C@@H](CC(C)C)C(=O)N[C@@H](C)C(=O)N[C@H](C)C(=O)N(C)[C@@H](CC(C)C)C(=O)N(C)[C@@H](CC(C)C)C(=O)N(C)[C@@H](C(C)C)C(=O)N1C` (stereo in doubt) [Compound 3.4.2, 3-[(R)-2-(methylamino)-5-morpholinopentanoyl]-4-[(2S,3S)-3-methyl-2-(methylamino)-4-(methylsulfonyl)butanoyl]-cyclosporin], in series [1], the “CypA Kd” value was 8.7. Moreover, the IC50 in series [2] (setting [8]) amounted to 1300 nM; in series [5], 13800 nM. In series [3], this compound displayed a Ki of more than 50000 nM. Besides, the CypF Kd in series [4] came to 5 nM. Further, the “CypB Kd” value in series [6] is reported as 4.4.

With `C/C=C/C[C@@H](C)[C@@H](O)[C@H]1C(=O)N[C@@H](CC)C(=O)N(C)[C@H](C)C(=O)N(C)[C@@H]([C@H](C)COCC(C)(C)O)C(=O)N[C@@H](C(C)C)C(=O)N(C)[C@@H](CC(C)C)C(=O)N[C@@H](C)C(=O)N[C@H](C)C(=O)N(C)[C@@H](CC(C)C)C(=O)N(C)[C@@H](CC(C)C)C(=O)N(C)[C@@H](C(C)C)C(=O)N1C` [Compound 2.7, 3-[D-Ala]-4-[(2S,3S)-4-(2-hydroxy-2-methylpropoxy)-3-methyl-2-(methylamino)butanoyl]-cyclosporin] (cyclo(A[dA][NMeL][NMeL][NMeV][MeBmt][Abu][dNMeA][X17]V[NMeL])), in series [1], the “CypA Kd” value turned out to be 2.5. This compound yielded an IC50 in series [7] of 1800 nM. The “NIM TDI kinact/Ki” value in series [3] was found to be 25 M⁻¹ s⁻¹. The compound also had a CypF Kd in series [4] of 0.9 nM. For the same compound, in series [6], the “CypB Kd” value amounted to 1.2.

As for `CCCC[C@@H](C)[C@@H](O)[C@H]1C(=O)N[C@@H](CC)C(=O)N(C)[C@H](C)C(=O)N(C)[C@@H]([C@H](C)CN2CCN(C3CCC3)CC2)C(=O)N[C@@H](C(C)C)C(=O)N(C)[C@@H](CC(C)C)C(=O)N[C@@H](C)C(=O)N[C@H](C)C(=O)N(C)[C@@H](CC(C)C)C(=O)N(C)[C@@H](CC(C)C)C(=O)N(C)[C@@H](C(C)C)C(=O)N1C` [Compound 2.5.15, 1-dihydro-3-[D-Ala]-4[(2S,3R)-2-Amino-4-(4-cyclobutyl-piperazin-1-yl)-butanoyl]-cyclosporin] (cyclo([NMe(dihydroBmt)][Abu][dNMeA][X22]V[NMeL]A[dA][NMeL][NMeL][NMeV])), in series [1], the “CypA Kd” value is reported as 1.4. In addition, the IC50 in series [2] is 18 nM; in series [5] it was 7600 nM. This compound displayed a KI (inactivation) in series [3] of more than 50000 nM. In series [4], this compound came in with a CypF Kd of 0.6 nM. Further, the “CypB Kd” value in series [6] is 0.7.

For the compound `C/C=C/C[C@@H](C)[C@@H](O)[C@H]1C(=O)N[C@@H](CC)C(=O)N(C)[C@H](C)C(=O)N(C)[C@@H]([C@H](C)COC[C@@H]2CN(CC)CCO2)C(=O)N[C@@H](C(C)C)C(=O)N(C)[C@@H](CC(C)C)C(=O)N[C@@H](C)C(=O)N[C@H](C)C(=O)N(C)[C@@H](CC(C)C)C(=O)N(C)[C@@H](CC(C)C)C(=O)N(C)[C@@H](C(C)C)C(=O)N1C` [Compound 2.20.1, 3-[D-Ala]-4-[(2S,3S)-4-(((S)-4-ethylmorpholin-2-yl)methoxy)-3-methyl-2-(methylamino)butanoyl]-cyclosporin] (cyclo(A[dA][NMeL][NMeL][NMeV][MeBmt][Abu][dNMeA][X25]V[NMeL])), the “CypA Kd” value in series [1] came to 0.7. Also, in series [7], 1900 nM corresponded to half-maximal inhibition (IC50). For the same compound, the “NIM TDI kinact/Ki” value in series [3] is 6.7 M⁻¹ s⁻¹. The compound further registered a CypF Kd in series [4] of 0.5 nM. For the same compound, in series [6], the “CypB Kd” value was determined as 0.7.
